# Experimental data taken from ChEMBL document CHEMBL1909046, “DrugMatrix in vitro pharmacology data”.
# What was measured:
# [1] = target: Beta-1 adrenergic receptor (Homo sapiens, UniProt P08588); experiment: DRUGMATRIX: Adrenergic beta1 radioligand binding (ligand: [125I] Cyanopindolol); format: cell membranes, CHO-K1, Membrane; settings: cho-k1; Not Active = under 50% inhibition at 10 µM
# [2] = target: Beta-3 adrenergic receptor (Homo sapiens, UniProt P13945); experiment: DRUGMATRIX: Adrenergic beta3 radioligand binding (ligand: [125I] Cyanopindolol); format: cell membranes, HEK293, Membrane; settings: Not Active = under 50% inhibition at 10 µM
# [3] = DRUGMATRIX: beta-Lactamase enzyme inhibition (substrate: Nitrocefin); parameters: species or system Bacillus cereus; settings: Not Active = under 50% inhibition at 10 µM
# [4] = DRUGMATRIX: Calcium Channel Type L, Benzothiazepine radioligand binding (ligand: [3H] Diltiazem); format: cell membranes, Rattus norvegicus, Wistar, Brain, Membrane; settings: Not Active = under 50% inhibition at 10 µM
# [5] = target: 5-hydroxytryptamine receptor 6 (Homo sapiens, UniProt P50406); format: cell membranes, HeLa, Membrane; note: in other assays of this panel Not Active means under 50% inhibition at 10 µM
# Chain of 5-hydroxytryptamine receptor 6 (P50406 whole entry): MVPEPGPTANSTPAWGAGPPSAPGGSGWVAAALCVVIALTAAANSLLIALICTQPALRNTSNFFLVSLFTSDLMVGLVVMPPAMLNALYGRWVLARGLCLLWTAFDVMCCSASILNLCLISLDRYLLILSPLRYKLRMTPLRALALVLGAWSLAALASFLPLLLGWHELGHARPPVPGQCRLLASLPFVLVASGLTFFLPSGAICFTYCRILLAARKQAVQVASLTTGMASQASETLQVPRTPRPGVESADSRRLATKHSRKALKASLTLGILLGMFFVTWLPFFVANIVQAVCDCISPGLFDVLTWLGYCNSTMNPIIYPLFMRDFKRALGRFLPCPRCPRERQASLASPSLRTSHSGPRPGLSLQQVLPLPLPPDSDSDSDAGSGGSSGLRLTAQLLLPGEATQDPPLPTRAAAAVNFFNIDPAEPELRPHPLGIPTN
# Chain of Beta-1 adrenergic receptor (P08588 whole entry): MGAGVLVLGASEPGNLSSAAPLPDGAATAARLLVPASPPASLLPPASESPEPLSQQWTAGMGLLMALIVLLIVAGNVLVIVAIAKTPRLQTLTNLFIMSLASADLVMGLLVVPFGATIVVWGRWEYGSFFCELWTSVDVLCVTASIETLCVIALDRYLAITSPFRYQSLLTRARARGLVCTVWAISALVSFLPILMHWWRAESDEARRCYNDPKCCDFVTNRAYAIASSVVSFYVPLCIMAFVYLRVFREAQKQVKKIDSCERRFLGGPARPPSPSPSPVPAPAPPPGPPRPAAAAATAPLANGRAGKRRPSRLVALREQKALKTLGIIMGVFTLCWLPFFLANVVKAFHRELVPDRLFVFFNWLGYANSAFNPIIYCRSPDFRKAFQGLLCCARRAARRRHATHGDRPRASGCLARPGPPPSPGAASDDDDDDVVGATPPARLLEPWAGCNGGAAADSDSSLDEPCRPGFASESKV
# Chain of Beta-3 adrenergic receptor (P13945 whole entry): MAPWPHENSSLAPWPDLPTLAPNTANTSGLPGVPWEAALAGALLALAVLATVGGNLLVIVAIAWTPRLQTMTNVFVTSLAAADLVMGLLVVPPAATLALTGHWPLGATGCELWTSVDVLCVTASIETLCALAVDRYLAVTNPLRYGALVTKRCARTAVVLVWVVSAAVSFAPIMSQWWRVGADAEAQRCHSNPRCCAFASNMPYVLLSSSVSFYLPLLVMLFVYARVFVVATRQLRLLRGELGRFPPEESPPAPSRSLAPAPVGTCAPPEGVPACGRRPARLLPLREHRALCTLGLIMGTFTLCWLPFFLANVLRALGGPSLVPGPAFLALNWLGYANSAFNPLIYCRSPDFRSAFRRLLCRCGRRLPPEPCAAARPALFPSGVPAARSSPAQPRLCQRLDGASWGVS
Molecule,IC50 [1],IC50 ([2]; hek293),IC50 [3],Ki [3],IC50 [4],Ki [4],IC50 ([5]; hela),IC50 ([5]; read-out: IC50) [µM],Ki ([5]; read-out: Ki) [µM],IC50 ([2]; read-out: IC50) [µM],Ki ([2]; read-out: Ki) [µM],Ki [1],Ki ([2]; hek293),Ki ([5]; hela),IC50 ([4]; read-out: IC50) [µM],Ki ([4]; read-out: Ki) [µM]
O=C1c2ccccc2C(=O)C1c1ccccc1 [PHENINDIONE],Not Active,Not Active,Not Active,Not Active,Not Active,Not Active,Not Active,,,,,,,,,
Clc1cc(Cl)c(OCC#CI)cc1Cl [HALOPROGIN],Not Active,Not Active,Not Active,Not Active,Not Active,Not Active,,4.01,1.86,,,,,,,
C[C@H]1C[C@H]2[C@@H]3CCC4=CC(=O)C=C[C@]4(C)[C@@]3(F)[C@@H](O)C[C@]2(C)[C@@]1(O)C(=O)CO [BETAMETHASONE],Not Active,Not Active,Not Active,Not Active,Not Active,Not Active,Not Active,,,,,,,,,
COc1ccc(Cl)cc1C(=O)NCCc1ccc(S(=O)(=O)NC(=O)NC2CCCCC2)cc1 [GLYBURIDE],Not Active,Not Active,Not Active,Not Active,Not Active,Not Active,Not Active,,,,,,,,,
CC1(COc2ccc(CC3SC(=O)NC3=O)cc2)CCCCC1 (stereo not drawn) [CIGLITAZONE],Not Active,,Not Active,Not Active,Not Active,Not Active,Not Active,,,17.9,13.4,,,,,
Cc1ccnc2c1NC(=O)c1cccnc1N2C1CC1 [NEVIRAPINE],Not Active,Not Active,Not Active,Not Active,Not Active,Not Active,Not Active,,,,,,,,,
CNC[C@H](O)c1ccc(O)c(O)c1 [EPINEPHRINE],Not Active,Not Active,Not Active,Not Active,Not Active,Not Active,Not Active,,,,,,,,,
CN(Cc1cc(Br)cc(Br)c1N)C1CCCCC1 [BROMHEXINE],Not Active,Not Active,Not Active,Not Active,Not Active,Not Active,Not Active,,,,,,,,,
COPPER(II) OXIDE,Not Active,Not Active,Not Active,Not Active,Not Active,Not Active,Not Active,,,,,Not Active,Not Active,Not Active,,
CCN1C[C@]2(COC)[C@H](O)C[C@H](OC)[C@@]34[C@@H]5C[C@@]6(O)[C@H](OC(=O)c7ccccc7)[C@@H]5[C@@](OC(C)=O)([C@@H]([C@H](OC)[C@H]23)[C@@H]14)[C@@H](O)[C@@H]6OC [ACONITINE],Not Active,Not Active,Not Active,Not Active,Not Active,Not Active,Not Active,,,,,,,,,
COc1ccc(C[C@H](N)C(=O)N[C@H]2[C@@H](O)[C@H](n3cnc4c(N(C)C)ncnc43)O[C@@H]2CO)cc1 [PUROMYCIN],Not Active,Not Active,Not Active,Not Active,Not Active,Not Active,Not Active,,,,,,,,,
OC[C@H]1OC2C3[C@@H](CO)OC(O[C@H]4[C@H](O)[C@@H](O)[C@@H](O[C@H]5[C@H](O)[C@@H](O)[C@@H](O[C@H]6[C@H](O)[C@@H](O)[C@@H](O[C@H]7[C@H](O)[C@@H](O)[C@@H](O[C@H]8[C@H](O)[C@@H](O)[C@@H](O[C@H]9[C@H](O)[C@@H](O)C(OC1[C@H](O)[C@H]2O)O[C@@H]9CO)O[C@@H]8CO)O[C@@H]7CO)O[C@@H]6CO)O[C@@H]5CO)O[C@@H]4CO)[C@H](O)[C@H]3O,Not Active,Not Active,Not Active,Not Active,Not Active,Not Active,Not Active,,,,,,,,,
NC(N)=Nc1nc(CSCCC(N)=NS(N)(=O)=O)cs1 [FAMOTIDINE],Not Active,Not Active,Not Active,Not Active,Not Active,Not Active,Not Active,,,,,,,,,
C[N+](C)(C)CCOP(=O)([O-])OC[C@H](O)CO,Not Active,Not Active,Not Active,Not Active,Not Active,Not Active,Not Active,,,,,,,,,
COc1cc(/C=C/C(=O)O)ccc1O [FERULATE],Not Active,Not Active,Not Active,Not Active,Not Active,Not Active,Not Active,,,,,,,,,
NC(=O)NC(=O)Cc1ccccc1 [PHENACEMIDE],Not Active,Not Active,Not Active,Not Active,Not Active,Not Active,Not Active,,,,,,,,,
NC(=O)CN1CCCC1=O,Not Active,Not Active,Not Active,Not Active,Not Active,Not Active,Not Active,,,,,,,,,
CC(C)Cn1cnc2c(N)nc3ccccc3c21 [IMIQUIMOD],Not Active,Not Active,Not Active,Not Active,Not Active,Not Active,Not Active,,,,,,,,,

Molecule,IC50 [1],IC50 ([2]; hek293),IC50 [3],Ki [3],IC50 [4],Ki [4],IC50 ([5]; hela),IC50 ([5]; read-out: IC50) [µM],Ki ([5]; read-out: Ki) [µM],IC50 ([2]; read-out: IC50) [µM],Ki ([2]; read-out: Ki) [µM],Ki [1],Ki ([2]; hek293),Ki ([5]; hela),IC50 ([4]; read-out: IC50) [µM],Ki ([4]; read-out: Ki) [µM]
CCO [ALCOHOL],Not Active,Not Active,Not Active,Not Active,Not Active,Not Active,Not Active,,,,,,,,,
C[C@H](C(=O)O)c1ccc2oc(-c3ccc(F)cc3)nc2c1 [FLUNOXAPROFEN],Not Active,Not Active,Not Active,Not Active,Not Active,Not Active,Not Active,,,,,,,,,
O=C(O)c1ccccc1 [BENZOIC ACID],Not Active,Not Active,Not Active,Not Active,Not Active,Not Active,Not Active,,,,,,,,,
CN(CCOc1ccc(C[C@H](Nc2ccccc2C(=O)c2ccccc2)C(=O)O)cc1)c1ccccn1,Not Active,,Not Active,Not Active,Not Active,Not Active,Not Active,,,22.1,16.6,,,,,
O=c1[nH]cnc2c1ncn2[C@H]1CC[C@@H](CO)O1 [DIDANOSINE],Not Active,Not Active,Not Active,Not Active,Not Active,Not Active,Not Active,,,,,,,,,
CC(C)(c1ccc(O)cc1)c1ccc(O)cc1 [BISPHENOL A],Not Active,Not Active,Not Active,Not Active,Not Active,Not Active,,5.42,2.52,,,,,,,
ClC1=C(Cl)[C@]2(Cl)[C@@H]3[C@@H]4C[C@@H]([C@H]5O[C@@H]45)[C@@H]3[C@@]1(Cl)C2(Cl)Cl [DIELDRIN],Not Active,Not Active,Not Active,Not Active,Not Active,Not Active,Not Active,,,,,,,,,
c1ccc(Cn2ccnc2)cc1,Not Active,Not Active,Not Active,Not Active,Not Active,Not Active,Not Active,,,,,,,,,
C[C@]12CC[C@@H](O)C[C@@H]1CC[C@@H]1[C@@H]2CC[C@]2(C)C(=O)CC[C@@H]12 [ANDROSTERONE],Not Active,Not Active,Not Active,Not Active,Not Active,Not Active,Not Active,,,,,,,,,
CC12CCC(CC1)C(C)(C)O2 [EUCALYPTOL],Not Active,Not Active,Not Active,Not Active,Not Active,Not Active,Not Active,,,,,,,,,
Nc1nc(N)c2nc(CNc3ccc(C(=O)N[C@@H](CCC(=O)O)C(=O)O)cc3)cnc2n1 [AMINOPTERIN],Not Active,Not Active,Not Active,Not Active,Not Active,Not Active,Not Active,,,,,,,,,
Nc1ccc(Cc2ccc(N)cc2)cc1,Not Active,Not Active,Not Active,Not Active,Not Active,Not Active,Not Active,,,,,,,,,
COc1ccccc1OCCNCC(O)COc1cccc2[nH]c3ccccc3c12 (stereo not drawn) [CARVEDILOL],,,Not Active,Not Active,,,,1.52,0.705,,,,,,0.621,0.552
CCN1CCN(c2cc3c(cc2F)c(=O)c(C(=O)O)cn3C2CC2)CC1 [ENROFLOXACIN],Not Active,Not Active,Not Active,Not Active,Not Active,Not Active,Not Active,,,,,,,,,
CC(C)NCC(O)COc1ccc(CC(N)=O)cc1 (stereo not drawn) [ATENOLOL],,Not Active,Not Active,Not Active,Not Active,Not Active,Not Active,,,,,,,,,
CCN(CCO)CCCC(C)Nc1ccnc2cc(Cl)ccc12 (stereo not drawn) [HYDROXYCHLOROQUINE],,Not Active,Not Active,Not Active,Not Active,Not Active,Not Active,,,,,,,,,
Cc1c(N)nc([C@H](CC(N)=O)NC[C@H](N)C(N)=O)nc1C(=O)N[C@H](C(=O)N[C@H](C)[C@@H](O)[C@H](C)C(=O)N[C@H](C(=O)NCCc1nc(-c2nc(C(=O)NCCC[S+](C)C)cs2)cs1)[C@@H](C)O)[C@@H](O[C@@H]1O[C@@H](CO)[C@@H](O)[C@H](O)[C@@H]1O[C@H]1O[C@H](CO)[C@@H](O)[C@H](OC(N)=O)[C@@H]1O)c1c[nH]cn1.[Br-] [BLEOMYCIN A2],,Not Active,Not Active,Not Active,Not Active,Not Active,Not Active,,,,,,,,,
